Here are results for five compounds from patent publication US20210254069A1, “COMBINATION THERAPIES COMPRISING C/EBP ALPHA SARNA” (MiNA THERAPEUTICS LIMITED, priority 2018, published 2021).

In the oligonucleotide strings, read from the 5' end, every base follows the letter of its sugar. An asterisk marks phosphorothioate; unmarked linkages are phosphodiester. Other units and linkages are bracketed, terminal groups are in braces. A string of capitals states the bases alone. [invAb] = inverted abasic unit; d = 2'-deoxy (DNA); m = 2'-O-methyl; r = 2'-OH (RNA)

Data set [1] deals with HCC rat DEN model. Nature of the data set: DEN rat HCC model, tumour volume. In kind it is in vivo. The settings on record: DEN rats; treated 3x/week for 2 weeks (MTL-CEBPA i.v.; sorafenib P.O. 10 mg/kg); sacrifice day 15; PBS 644.7. The protocol: (§1) Male Wistar rats (150-180 g) at 7 weeks of age were obtained from the Animal Center of National Taiwan University. The rats were housed in standard conditions, and all the experiments were conducted in accordance with the “Guide for the Care and Use of Laboratory Animals” prepared by the Institutional Animal Care and Use Committee of National Taiwan University. The rats were given DEN solution daily (Sigma, St Louis, Mo.) as the sole source of drinking water for 6 weeks, followed by 3 weeks of regular water. The DEN solution feeding started with 100 ppm in the first week. The average bodyweight (BW) of the animals was measured once a week per group of five rats, and the concentration of DEN in their drinking water was adjusted in proportion to the BW each week relative to that of the first week. […]
On 15th day after treatment, the animals were sacrificed and tumour size and tumour/liver weight were measured. The body, liver, lung, and spleen were weighed, and the aspects of all organs were recorded. After the animals were sacrificed, all liver lobes were promptly removed and weighed, and the diameters of all of the macroscopically visible nodules on the liver surface and in the 5-mm sliced sections were measured. Tumour burden was determined in terms of two criteria: the ratio of liver weight/BW, and the total volume of all the tumour nodules with diameter >3 mm. […]

For data set [2], the system named is alpha-fetoprotein (AFP). The data set can be described thus: DEN rat HCC model, serum alpha-fetoprotein. In kind it is in vivo. The conditions noted are these: DEN rats, 2 weeks dosing, PBS 27. How it is done: as §1
The serum levels of ALT, AST and total bilirubin were measured with VITROS 5.1 FS Chemistry Systems (Ortho-Clinical Diagnostics, Inc.). The serum level of rat alpha-fetoprotein was evaluated with anti-Rat AFP ELISA Kit (USCN life company/China), following the instructions of the manufacturer.
Serum levels of alpha-fetoprotein (AFP) were measured before treatment and compared to measurement after treatment and represented as ‘AFP change’ (mg/dl). Serum AFP change was measured in each group. […]

The subject of data set [3] is Nexavar resistant BNL tumour. Nature of the data set: Sorafenib-resistant BNL subcutaneous tumour model. The conditions noted are these: after 3 weeks; MTL-CEBPA 4.2 mg/kg IV d1, d3, d5; anti-PD1 250 ug IP d1, d3, d5; Sorafenib 30 mg/kg PO daily. The data set is classed as in vivo, mouse. How it is done:
Cell Culture: The mouse hepatocellular carcinoma cell line BNL was maintained in Dulbecco's modified Eagle's medium (DMEM, Gibco by Invitrogen) with […] G418 (Merck, Germany), 1% antibiotic antimycotic (Gibco by Invitrogen) and 10% fetal bovine serum (Gibco by Invitrogen) and cultured at 37° C. in a humidified atmosphere.
Tumour Inoculation and Experimental design: Each BALB/c mice were injected subcutaneously (s.c.) on the flank with 3×10^5 BNL-Luc cells in 0.05 ml of PBS. After inoculation for 3 weeks, Nexavar® (Sorafenib) was orally administered every day for two weeks (30 mg/kg/day).
The selected animals were randomized into the 7 treatment groups (Table 18).
60 mice were injected with 3×10^5 of BNL-Luc cells in […] mixture of PBS. After 3 weeks, the mice were dosed with 30 mg/kg of Sorafenib p.o. every day for 2 weeks. […] The 7 groups included PBS as Control group [PBS]; MTL-CEBPA [C], ([…], I.V., d1, d3, d5); anti-PD1 antibody [P] (250 ug, I.P., d1, d3, d5); Nexavar® (Sorafenib) [N] (30 mg/kg, P.O. daily); MTL-CEBPA+anti-PD1 [C+P]; MTL-CEBPA+Nexavar® (Sorafenib) [C+N] and MTL-CEBPA+anti-PD1+Nexavar® (Sorafenib) [C+P+N].

Data set [4] concerns HCC. The conditions noted are these: single agent, published Phase III; cited from earlier work.
Data set [5] concerns advanced HCC. The settings on record: cited from earlier work.
Data set [6] deals with CEBPA-mRNA. The data set can be described thus: qRT-PCR of CEBPA mRNA, CEBPA-51 with FGFR4 antibody. In kind it is cell-based. The conditions noted are these: Hep3B; oligo 10 nM, anti-human FGFR4 antibody 30 ug/ml where applicable; 72 hours post-seeding; Mock, no antibody = 1.00. How it is done: RNA was isolated from cultured cells using the RNeasy Mini Kit (QIAGEN). RNA was quantitated using a Qiaxpert (Qiagen), and reverse transcribed using the Quantitect Reverse Transcription Kit (QIAGEN). Relative expression levels were determined by qPCR using Quantifast SYBR Green Master Mix (QIAGEN) on a Quantstudio 5 (Qiagen). The following Quantitect Primer Assays (QIAGEN) were used: CEBPA_1_SG, FGFR4_1_SG and GAPDH_1_SG. Relative expression was determined the DDCt method normalized to GAPDH expression.
(§2) In another study, Hep3B cells were seeded at 1.0×10^5 cells/well in a 24 well plate in the presence of 30 ug/ml anti-human FGFR4 therapeutic antibody (XPA.48.056; Creative Biolabs) as applicable. Cells were transfected with either 10 nM CEBPA-51 saRNA, 10 nM Control oligo (NC) or transfection agent alone (Mock) at seeding and this was repeated 24 hours post- seeding and culture medium changed at 48 hours. FGFR antibody treatment was maintained throughout the experiment. Cells were harvested for RNA collection 72 hours post-seeding qRT-PCR analysis.

For data set [7], the system named is Hep3B cells. Nature of the data set: WST1 growth assay, CEBPA-51 with FGFR4 antibody. The data set is classed as cell-based. The conditions noted are these: oligo 10 nM, FGFR4 antibody where applicable, Mock, no antibody = 1.00. How it is done:
(§3) HepB3 cells were seeded at 1×10^4 cells/well in a 96 well plate, reverse transfected with oligo at seeding and forward transfected 24 hours later. WST cell viability assay was performed as according to the manufactures' instructions (with 24 hr WST incubation). The WST alone signal has been subtracted from the cell-WST signal.
as §2
Treatment of Hep3B cells with FGFR4 antibody reduced cell viability. Combination treatment of both FGFR4 antibody and CEPBA-51 further reduced cell viability as monitored by WST1 growth assay (Table 9A, 96 hours; Table 9B, 120 hours).
For orientation: Tetrazolium dyes change colour on reduction, which living cells bring about.

Data set [8] relates to Hep3B cells. The data set can be described thus: WST-1 growth assay, siFGFR4 / CEBPA-51. In kind it is cell-based. The conditions noted are these: 20 nM, Mock = 1.00. How it is done: HepB3 cells were grown in DMEM supplemented with 10% fetal bovine serum (FBS), 2 mM L-glutamine, and penicillin/streptomycin in a 5% CO2 incubator. Transfections were performed using 2 μL of Lipofectamine 2000 (Life Technologies) per well in 24 well plate.
as §3

For data set [9], the system named is HCC. The settings on record: CHECKMATE-040 subgroup, cited from earlier work.

For `CNC(=O)c1cc(Oc2ccc(NC(=O)Nc3ccc(Cl)c(C(F)(F)F)c3)cc2)ccn1` [Sorafenib], the “Tumor volume, Mean” value in data set [1] turned out to be 299.5 mm^3. Further, the “AFP change (pre-treatment vs post-treatment), Mean” value in [2] was -36.83 mg/dL. Also, in [3], the “reduction in tumour volume” value is given as “no effect” and the “reduction in tumour weight” value is on record as “no effect”. Also, in data set [4], the “complete responses, share of patients” value is recorded as 0% and the “partial responses, share of patients” value was 2%. Also, in [5] (patients with advanced HCC), the “decrease in the risk of death” value was 31%. In addition, the median survival in data set [5] (patients with advanced disease, placebo 7.9 months) is 10.7 months.

On to `COc1cc2nccc(Oc3ccc(NC(=O)NC4CC4)c(Cl)c3)c2cc1C(N)=O` [lenvatinib], for which the “partial responses, share of patients” value in [4] was 24%.

For “CEBPA-51: saRNA duplex that upregulates C/EBPa; antisense SEQ ID No. 1, sense SEQ ID No. 2 (sense GCGGUCAUUGUCACUGGUCUU; antisense GACCAGUGACAAUGACCGCUU; sense: sugars from the 5' end mmrmrrrrrmrrrmrrrrrmm, [invAb] at 5' end, backbone not given here; antisense: sugars from the 5' end r19 m2, backbone not given here; further chemistry not fully specified)”, the CEBPA-mRNA relative expression in data set [6] is recorded as 1.31. The Normalized cell viability in data set [7] (96 hours after treatment) was determined as 0.32; in [7] (120 hours after treatment), 0.25.

Consider “NC: Negative control oligonucleotide siFLUC, SEQ ID NO: 6 and 7 (chain 1 rCmUmUrAmCrGmCmUrGrArGmUrAmCmUmUmCrGrAdT*dT; chain 2 rUrCrGrArArGmUrArCrUmCrArGrCrGmUrArArGdT*dT)”, for which the Normalized cell viability in data set [8] (96 hours after treatment) was found to be 0.62; in data set [8] (120 hours after treatment), 0.70; in data set [7] (96 hours after treatment), 0.48; in data set [7] (120 hours after treatment) it was 0.59. The compound further came in with a CEBPA-mRNA relative expression in data set [6] of 0.89.

For Nivolumab: PD-1 inhibitor, Human IgG, in data set [9], the “responders with responses lasting 6 months or longer” value is reported as 91% and the “responders with responses lasting 12 months or longer” value was 55%. Besides, in data set [9] (HCC patients, 95% CI: 9.2, 20.8), the overall response rate is listed as 14.3%. In data set [9] (HCC patients), the complete responses is on record as 3 and the partial responses is reported as 19.
